# Read-outs that look alike come from different tables or passages of the source.
# Key:
# [1] = Stability in solution in anhydrous DMSO; assay type: physicochemical
# Method: The prodrug F 373 is stable in solution in anhydrous DMSO. To investigate the cleavability, […] of F 373 solution (5 mg/ml in DMSO) were treated with 180 ml of 0.02 M phosphate buffer pH 7.2 and 10 ml of E. coli β-glucuronidase (Sigma) (330 mg/ml) and the mixture was incubated at 37° C. 25 ml batches were diluted with 225 ml of 0.1 M phosphate buffer pH 3.0 (85%) and acetonitrile (15%) and immediately analyzed with the aid of the following HPLC system.
# [2] = tested on: LoVo cells; test: Cytotoxicity on LoVo tumor cells in the presence and absence of β-glucuronidase (MTT); assay type: cell-based
smiles,measurement,setting,value
"CN(C(=O)Oc1ccc(N(CCCl)CCCl)cc1)c1cc([N+](=O)[O-])ccc1O[C@@H]1O[C@H](C(=O)O)[C@@H](O)[C@H](O)[C@H]1O [F 373, 2-[N-Methyl-N-[4-(N,N'-bis(2-chloroethyl)amino)phenyloxycarbonyl]-amino]-4-nitrophenyl-β-D-glucuronic acid]",stability in solution,[1],stable
same,IC50,[2]; read-out: IC50 with β-gluc.,6.3 µM
same,IC50,[2]; read-out: IC50 without β-gluc.,> 500 µM
C=CC1CN2CCC1CC2C(OC(=O)N(C)c1cc([N+](=O)[O-])ccc1OC1OC(C(=O)O)C(O)C(O)C1O)c1ccnc2ccc(OC)cc12 (stereo not drawn) [F 391],IC50,"[2]; Homo sapiens, LoVo, 65 h, read-out: IC50 with β-gluc.",113 µM
same,IC50,"[2]; Homo sapiens, LoVo, 65 h, read-out: IC50 without β-gluc.",> 400 µM
CN(C(=O)OCCN(CCO)c1nc(N2CCCCC2)c2nc(N(CCO)CCO)nc(N3CCCCC3)c2n1)c1cc([N+](=O)[O-])ccc1O[C@@H]1O[C@H](C(=O)O)[C@@H](O)[C@H](O)[C@H]1O [F 392],IC50,"[2]; Homo sapiens, LoVo cells, 65 h, with β-glucuronidase (50 mg/mil final concentration), read-out: IC50 with β-gluc.",49.5 µM
same,IC50,"[2]; Homo sapiens, LoVo cells, 65 h, without β-glucuronidase, read-out: IC50 without β-gluc.",> 400 µM
"OCCN(CCO)c1nc(N2CCCCC2)c2nc(N(CCO)CCO)nc(N3CCCCC3)c2n1 [dipyridamole, reference compound]",IC50,"[2]; Homo sapiens, LoVo, parent toxic compound tested alone, read-out: IC50 of the toxic compound tested alone",43 µM
"C=C[C@H]1C[N@@]2CC[C@H]1C[C@H]2[C@H](O)c1ccnc2ccc(OC)cc12 [quinine, reference compound]",IC50,"[2]; Homo sapiens, LoVo, read-out: IC50 of the toxic compound tested alone",103 µM

# Reference: patent US5935995A, “Prodrugs for the therapy of tumors and inflammatory disorders” (Heochst Aktiengesellschaft, priority 1996, dated 1999)
